# Measured values: US9371337B2, “β-lactamase inhibitors” (The Regents of the University of California, priority 2011, dated 2016)
# Columns and labels:
# [1] = test system: P. aeruginosa overproducing chromosomally-mediated class C β-lactamase; experiment: MIC of third-generation cephalosporins alone and with compounds 4 or 9 (Table 3); type: cell-based, Pseudomonas aeruginosa; conditions: antibiotic alone
# Source text: (§1) Antimicrobial activity was investigated quantitatively to determine the minimum inhibitory concentrations (MICs) of the β-lactam/inhibitor combination necessary to inhibit the bacterial growth (Table 3). The MICs of β-lactams alone against the strains corresponded to a high level of resistance according to Clinical and Laboratory Standards Institute (CLSI) standards. (Clinical and Laboratory Standards Institute, Performance standards for antimicrobial susceptibility testing, 20th Informational Supplement, M100-S20 2010) The compounds had no measurable antibiotic activity when used alone.
# (§2) Susceptibility testing was performed and interpreted following the guidelines of CLSI. (Clinical and Laboratory Standards Institute, Performance standards for antimicrobial susceptibility testing, 20th Informational Supplement, M100-S20 2010) The compounds were dissolved in 50% DMSO, and dilutions were performed using Muller-Hinton medium. An adequate final concentration was obtained to determine the minimum inhibitory concentrations (MICs). The concentration of DMSO was maintained below 5%. The inhibitors were tested for synergy with the third-generation β-lactams ceftazidime and cefotaxime against several clinical bacteria. […] Each value reported reflects the average of three independent experiments. […] A Klebsiella pneumoniae isolate produced the inducible plasmid-mediated class C enzyme DHA-1. The Friedman's test and the Wilcoxon signed rank test were used to compare MIC values. Statistical significance was established at p<0.05.
# [2] = test system: E. coli overproducing chromosomally-mediated class C β-lactamase; experiment: as above; type: cell-based, Escherichia coli; conditions: antibiotic alone
# Source text: as §1, §2
# [3] = test system: C. freundii 101, AmpC-overproducing; experiment: MIC of third-generation cephalosporins alone and with compounds (Table 6); type: cell-based, Citrobacter freundii; conditions: antibiotic alone
# Description: (§3) The anti-resistance activity of inhibitors was investigated by the determination of the minimum inhibitory concentrations (MICs) of the β-lactam/inhibitor combination necessary to inhibit the growth of clinically-isolated bacteria resistant to third-generation cephalosporins via expression of class A or class C β-lactamases (Table 6).
# (§4) Susceptibility testing was performed and interpreted following the guidelines of CLSI. (Clinical and Laboratory Standards Institute, Performance standards for antimicrobial susceptibility testing, 20th Informational Supplement, M100-S20 2010) The compounds were dissolved in 50% DMSO, and dilutions were performed using Muller-Hinton medium. An adequate final concentration was obtained to determine the minimum inhibitory concentrations (MICs). The concentration of DMSO was maintained below 5%. The inhibitors were tested for synergy with the third-generation β-lactams ceftazidime and cefotaxime against several clinical bacteria. The ratio of β-lactams to inhibitors was 1:4. Each value reported reflects the average of three independent experiments. […] The Friedman's test and the Wilcoxon signed rank test were used to compare MIC values. Statistical significance was established at p<0.05.
# (§5) Table 6. MICs (μg/ml) of third-generation cephalosporins alone and in association with the compounds (ratio 1/4) for clinical bacteria. CTX, cefotaxime and CAZ, ceftazidime. ^1, AmpC-overproducing bacteria; ^2, CTX-M-14-producing E. coli; ^3, KPC-2-producing K. pneumoniae; ^4, OXA-48-producing K. pneumoniae; ^5, NDM-1-producing C. freundii.
# [4] = test system: NDM-1-producing C. freundii; experiment: as above; type: cell-based, Citrobacter freundii; conditions: antibiotic alone
# Description: as §3, §4, §5
# [5] = test system: C. freundii, AmpC-overproducing; experiment: as above; type: cell-based, Citrobacter freundii; conditions: antibiotic alone
# Description: as §3, §4, §5
# [6] = test system: AmpC-overproducing Escherichia coli strain 4; experiment: Mouse model of bacteremia and sepsis, survival; type: in vivo, OF1 mice; conditions: 120 h post infection; ip at 0.5, 3.5, 6.5 h; imipenem 50 mg/kg, cefotaxime 50 mg/kg, cefotaxime:CR161 50:200 mg/kg
# Description: FIG. 17. Percentage of survival of mice infected with AmpC-overproducing Escherichia coli over the course of 5 days (120 h). Mice were inoculated by intraperitoneal injection with AmpC-overproducing Escherichia coli strain 4 (1±0.5 10^9 colony-forming units) and treated at 0.5, 3.5, 6.5 h after infection by intraperitoneal injection of 50 mg/kg imipenem (□, n=20), 50:200 mg/kg cefotaxime:CR161 combination (▪, n=17), 50 mg/kg cefotaxime (●, n=20) or sterile isotonic saline (◯, n=20).
# Efficacy in a mouse model of infection. We had not observed such substantial reversal of bacterial resistance to β-lactams, across such a broad spectrum of clinical isolates, for previous series of boronic acid inhibitors of β-lactamase; indeed, this lack of efficacy had motivated this study. These new cell-culture MIC values inspired us to investigate the efficacy of one of these compounds in a mouse model of bacteremia and sepsis. […] Mice were treated with cefotaxime alone, cefotaxime combined with compound CR161, with sterile isotonic saline, and with imipenem as a reference treatment of systemic infections by cephalosporin-resistant enterobacteriaceae (FIG. 17); 20 mice were used in each clade. […]
# OF1 mice 4-5 weeks of age and weighing 20-25 g were used in this study. […] The survival of mice in each group was monitored every 6 h for 5 days after infection. […]
# [7] = test system: hospital-derived strain of E. coli that overproduces AmpC; experiment: MIC for the strain used in the mouse model; type: cell-based; conditions: Escherichia coli
compound,measurement,setting,value
CO/N=C(\C(=O)N[C@@H]1C(=O)N2C(C(=O)O)=C(COC(C)=O)CS[C@H]12)c1csc(N)n1 [Cefotaxime],"MIC, cephalosporin alone",[1],>128 µg/mL
same,"MIC, cephalosporin alone",[2],8 µg/mL
same,"MIC, cephalosporin alone",[3],64 µg/mL
same,"MIC, cephalosporin alone",[4],512 µg/mL
same,"MIC, cephalosporin alone",[5],16 µg/mL
same,survival,[6],15%
same,MIC,[7],32 µg/mL
